# Test system: patients with advanced solid tumors
# Details: 85 mg BID 7d-on/7d-off (N = 6)
# Description: The study consisted of a dose-escalation part followed by an expansion part. In the dose escalation part, a 3-day pharmacokinetic (PK) lead-in period was conducted for a single dose in the first treatment cycle. Patients received GFH018 once on cycle 1 day 1 (C1D1) and underwent serial PK testing over the first 3 days. On C1D4, patients were administered the corresponding dose of GFH018 BID 14 days on/14 days off. The first cycle was defined as 31 days, including 3-day PK leading-in period with GFH018 single dosing and then 14d-on/14d-off dosing schedule. The subsequent cycles were 28 days. The starting dose of GFH018 was 5 mg, with eight planned dose levels up to 85 mg (5, 10, 20, 30, 40, 50, 65, and 85 mg). A modified 3+3 design was used to determine the maximum tolerance dose (MTD) and RDE, guided by safety/tolerability and PK data. Dose-limiting toxicities (DLTs) were evaluated during the first cycle at each dose level. The safety of 85 mg BID, 7 d-on/7 d-off, was explored after confirming the safety of 14 d-on/14 d-off. The DLTs were defined as hematological toxicities, including G4 neutropenia lasting for more than 5 days, G3 febrile neutropenia, G4 anemia, G4 thrombocytopenia, or G3 thrombocytopenia accompanied by bleeding, and ≥ G3 nonhematological toxicity (except for diarrhea, nausea, vomiting, and rash recovering ≤ G2 after supportive treatment within 3 days). The DLTs for cardiac toxicities included ≥ G2 cardiac valve abnormalities, ≥ G2 left ventricular ejection fraction (LVEF) decrease, any cardiovascular impairment shown in imaging, and abnormal highly sensitive troponin (hs-Tn) increased to ≥ twice the baseline in two consecutive tests with an interval ≥ 3 days. In the expansion part, patients were orally administered GFH018 RDE twice daily to further evaluate the safety of RDE and other dose regimens. […] The treatment cycle lasted 28 days.
# All enrolled patients were monitored regularly after GFH018 administration. Safety assessments included adverse events (AEs), serious AEs (SAEs), laboratory assessments, vital signs, physical examinations, electrocardiography and echocardiography. AEs were graded according to the NCI Common Terminology Criteria for Adverse Events (NCI-CTCAE) v5.0. All AEs were followed up until they were stable or had recovered to baseline. Adverse events of special interest (AESIs) were predefined as echocardiographic abnormalities such as aggravated stenosis or regurgitation of the heart valves, clinically significant decreases in LVEF, brain natriuretic peptide (BNP) or N-terminal pro-brain natriuretic peptide (NT-proBNP) increases, and hs-Tn increases judged by investigators.
# For the safety and efficacy analyses, data from patients who received GFH018 at the same dose in the dose-escalation and expansion cohorts were pooled. The demographic and baseline characteristics were summarized using descriptive methods. Safety and efficacy data were summarized for all patients who received at least one dose of GFH018. The ORR and DCR were summarized by cohort and overall. When the sample size of the analyzed group was ten or more, the Kaplan–Meier method was used to estimate the median PFS and TTP. In this study, treatment-emergent AEs (TEAEs) were defined as AEs that occurred on or after the first dosing date of GFH018 and no later than 30 days after the last dose of GFH018. The incidence and severity of AEs were descriptively summarized according to dose level. The PK parameters of GFH018 were calculated using noncompartmental analysis methods. All plasma PK data were summarized by cohort and visit day or time using descriptive statistics.
compound,measurement,value
Cc1cccc(-c2nn3c(c2-c2ccc4ncnn4c2/C=C/C(N)=O)CCC3)n1 [GFH018],"TEAE: ALT increased, any grade (Table S3)",0 n (%)
same,"TEAE: ALT increased, maximal CTCAE grade G1",0 n (%)
same,"TEAE: ALT increased, maximal CTCAE grade G2",0 n (%)
same,"TEAE: ALT increased, maximal CTCAE grade G3",0 n (%)
same,"TEAE: ALT increased, maximal CTCAE grade G4",0 n (%)
same,"TEAE: ALT increased, maximal CTCAE grade G5",0 n (%)
same,TEAE: AST increased,1 (16.7%) n (%)
same,"TEAE: AST increased, any grade (Table S3)",1 (16.7%) n (%)
same,"TEAE: AST increased, maximal CTCAE grade G1",1 (16.7%) n (%)
same,"TEAE: AST increased, maximal CTCAE grade G2",0 n (%)
same,"TEAE: AST increased, maximal CTCAE grade G3",0 n (%)
same,"TEAE: AST increased, maximal CTCAE grade G4",0 n (%)
same,"TEAE: AST increased, maximal CTCAE grade G5",0 n (%)
same,TEAE: Abdominal distention,1 (16.7%) n (%)
same,TEAE: Abdominal pain,2 (33.3%) n (%)
same,TEAE: Anemia,2 (33.3%) n (%)
same,TEAE: Asthenia,1 (16.7%) n (%)
same,TEAE: Bilirubin conjugated increased,1 (16.7%) n (%)
same,TEAE: Blood albumin decreased,1 (16.7%) n (%)
same,TEAE: Blood bilirubin increased,0 n (%)
same,TEAE: C-reactive protein increased,0 n (%)
same,"TEAE: C-reactive protein increased, any grade (Table S3)",0 n (%)
same,"TEAE: C-reactive protein increased, maximal CTCAE grade G1",0 n (%)
same,"TEAE: C-reactive protein increased, maximal CTCAE grade G2",0 n (%)
same,"TEAE: C-reactive protein increased, maximal CTCAE grade G3",0 n (%)
same,"TEAE: C-reactive protein increased, maximal CTCAE grade G4",0 n (%)
same,"TEAE: C-reactive protein increased, maximal CTCAE grade G5",0 n (%)
same,TEAE: Constipation,0 n (%)
same,TEAE: Decreased appetite,2 (33.3%) n (%)
same,"TEAE: Decreased appetite, any grade (Table S3)",2 (33.3%) n (%)
same,"TEAE: Decreased appetite, maximal CTCAE grade G1",1 (16.7%) n (%)
same,"TEAE: Decreased appetite, maximal CTCAE grade G2",1 (16.7%) n (%)
same,"TEAE: Decreased appetite, maximal CTCAE grade G3",0 n (%)
same,"TEAE: Decreased appetite, maximal CTCAE grade G4",0 n (%)
same,"TEAE: Decreased appetite, maximal CTCAE grade G5",0 n (%)
same,TEAE: GGT increased,0 n (%)
same,"TEAE: GGT increased, any grade (Table S3)",0 n (%)
same,"TEAE: GGT increased, maximal CTCAE grade G1",0 n (%)
same,"TEAE: GGT increased, maximal CTCAE grade G2",0 n (%)
same,"TEAE: GGT increased, maximal CTCAE grade G3",0 n (%)
same,"TEAE: GGT increased, maximal CTCAE grade G4",0 n (%)
same,"TEAE: GGT increased, maximal CTCAE grade G5",0 n (%)
same,TEAE: Hypoalbuminemia,1 (16.7%) n (%)
same,TEAE: LDH increased,0 n (%)
same,"TEAE: LDH increased, any grade (Table S3)",0 n (%)
same,"TEAE: LDH increased, maximal CTCAE grade G1",0 n (%)
same,"TEAE: LDH increased, maximal CTCAE grade G2",0 n (%)
same,"TEAE: LDH increased, maximal CTCAE grade G3",0 n (%)
same,"TEAE: LDH increased, maximal CTCAE grade G4",0 n (%)
same,"TEAE: LDH increased, maximal CTCAE grade G5",0 n (%)
same,TEAE: Lymphocyte count decreased,3 (50.0%) n (%)
same,TEAE: Platelet count decreased,1 (16.7%) n (%)
same,TEAE: Proteinuria,1 (16.7%) n (%)
same,TEAE: Sinus tachycardia,2 (33.3%) n (%)
same,TEAE: Urine protein present,1 (16.7%) n (%)
same,TEAE: White blood cell count decreased,1 (16.7%) n (%)
same,TEAE: White blood cells urine positive,0 n (%)
same,"TEAE: White blood cells urine positive, any grade (Table S3)",0 n (%)
same,"TEAE: White blood cells urine positive, maximal CTCAE grade G1",0 n (%)
same,"TEAE: White blood cells urine positive, maximal CTCAE grade G2",0 n (%)
same,"TEAE: White blood cells urine positive, maximal CTCAE grade G3",0 n (%)
same,"TEAE: White blood cells urine positive, maximal CTCAE grade G4",0 n (%)
same,"TEAE: White blood cells urine positive, maximal CTCAE grade G5",0 n (%)
same,TRAE: ALP increased,1 (16.7%) n (%)
same,TRAE: ALT increased,0 n (%)
same,TRAE: AST increased,0 n (%)
same,TRAE: Anemia,1 (16.7%) n (%)
same,TRAE: GGT increased,0 n (%)
